Measured values as given in patent US12459914B2, “Compounds and compositions for the treatment of tumors” (FONDAZIONE ISTITUTO ITALIANO DI TECNOLOGIA, priority 2019, dated 2025).

What follows are molecules tested against T1, BRC4/RAD51 interaction (Homo sapiens, UniProt Q06609) (assay: Competitive ELISA assay, disruption of BRC4/RAD51 interaction). Conditions: human Rad51, biotinylated BRC4 peptide.
T1 construct: purchased Creative Biomart (Rad51); Life Technologies (BRC4 peptide)
T1 sequence (Q06609 1-339): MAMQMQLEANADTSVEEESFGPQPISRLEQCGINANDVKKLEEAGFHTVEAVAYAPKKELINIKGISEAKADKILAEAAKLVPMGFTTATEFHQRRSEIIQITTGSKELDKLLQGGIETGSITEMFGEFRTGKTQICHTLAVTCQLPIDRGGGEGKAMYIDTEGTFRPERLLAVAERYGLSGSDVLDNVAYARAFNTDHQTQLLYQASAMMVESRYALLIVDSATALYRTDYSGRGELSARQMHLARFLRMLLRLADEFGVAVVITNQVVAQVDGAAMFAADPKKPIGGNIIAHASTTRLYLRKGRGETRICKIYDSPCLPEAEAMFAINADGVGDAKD
Type: binding
Experimental: A competitive ELISA screening assay using biotinylated BRC4 peptide to disrupt the BRC4/RAD51 interaction was performed by modifying the method described by Rajendra et al. (Nucleic Acids Res. 38 (2010) 82-96). BRC4-biotinylated peptide (N-term Biotin[…] from Life Technologies) was used to coat 384-well plates (Nunc). After washing with PBS containing 0.05% Tween-20 (PBST), and blocking with the solution BSA 1%/PBST, overnight hybridization with human Rad51 protein (NP_002866 Creative Biomart, NY) was performed. Test compounds were added in dose-response from […] in triplicate with constant DMSO 1%. Antibody raised against Rad51 (Millipore) and HRP-secondary antibody staining to develop the 3,30,5,50-tetramethyllbenzidine signal (Sigma) quenched with 1M HCl was used as the assay readout. Colorimetric measure was read on Victor5 (PerkinElmer) plate Reader. BRC4 and Rad51 were included in the assay as positive control. Results were analyzed using GraphPad Software.

| SMILES | EC50 |
| --- | --- |
| O=C(O)CCC(=O)N1N=C(c2c(-c3ccccc3)c3cc(Cl)ccc3[nH]c2=O)CC1c1ccc(F)cc1 (centres unmarked) [d.1, 4-[5-(6-chloro-2-oxo-4-phenyl-1H-quinolin-3-yl)-3-(4-fluorophenyl)-3,4-dihydropyrazol-2-yl]-4-oxo-butanoic acid] | 38 µM |
| CCC(=O)N1N=C(c2c(-c3ccccc3)c3cc(Cl)ccc3[nH]c2=O)CC1c1ccc(F)cc1 (centres unmarked) [d.3, 6-chloro-3-[3-(4-fluorophenyl)-2-propanoyl-3,4-dihydropyrazol-5-yl]-4-phenyl-1H-quinolin-2-one] | 34 µM |
| NCCC(=O)N1N=C(c2c(-c3ccccc3)c3cc(Cl)ccc3[nH]c2=O)CC1c1ccc(F)cc1 (centres unmarked) [d.4, 3-[2-(3-aminopropanoyl)-3-(4-fluorophenyl)-3,4-dihydropyrazol-5-yl]-6-chloro-4-phenyl-1H-quinolin-2-one] | > 100 µM |
| CCC(=O)N1N=C(c2c(-c3ccccc3)c3cc(Cl)ccc3[nH]c2=O)CC1c1ccc(Br)cc1 (centres unmarked) [d.10, 3-[3-(4-bromophenyl)-2-propanoyl-3,4-dihydropyrazol-5-yl]-6-chloro-4-phenyl-1H-quinolin-2-one] | 19 µM |
| COc1ccc(-c2ccc(C3CC(c4c(-c5ccccc5)c5cc(Cl)ccc5[nH]c4=O)=NN3C(C)=O)cc2)cc1 (centres unmarked) [d.42, 3-[2-acetyl-3-[4-(4-methoxyphenyl)phenyl]-3,4-dihydropyrazol-5-yl]-6-chloro-4-phenyl-1H-quinolin-2-one] | 70 µM |
| CCCn1cc(-c2ccc(C3CC(c4c(-c5ccccc5)c5cc(Cl)ccc5[nH]c4=O)=NN3C(C)=O)cc2)cn1 (centres unmarked) [d.44, 3-[2-acetyl-3-[4-(1-propylpyrazol-4-yl)phenyl]-3,4-dihydropyrazol-5-yl]-6-chloro-4-phenyl-1H-quinolin-2-one] | 46 µM |
| CCn1ncc2cc(-c3ccc(C4CC(c5c(-c6ccccc6)c6cc(Cl)ccc6[nH]c5=O)=NN4C(=O)CCC(=O)O)cc3)ccc21 (centres unmarked) [d.45, 4-[5-(6-chloro-2-oxo-4-phenyl-1H-quinolin-3-yl)-3-[4-(1-ethylindazol-5-yl)phenyl]-3,4-dihydropyrazol-2-yl]-4-oxo-butanoic acid] | 15 µM |
| CCC(=O)N1N=C(c2c(Cc3ccccc3)c3cc(Cl)ccc3[nH]c2=O)CC1c1ccc(F)cc1 (centres unmarked) [d.54, 4-benzyl-6-chloro-3-[3-(4-fluorophenyl)-2-propanoyl-3,4-dihydropyrazol-5-yl]-1H-quinolin-2-one] | 65 µM |
| COc1ccc(C2CC(c3c(Cc4ccccc4)c4cc(Cl)ccc4[nH]c3=O)=NN2C(=O)CCC(=O)O)cc1 (centres unmarked) [d.61, 4-[5-(4-benzyl-6-chloro-2-oxo-1H-quinolin-3-yl)-3-(4-methoxyphenyl)-3,4-dihydropyrazol-2-yl]-4-oxo-butanoic acid] | > 100 µM |
| Cn1ccc2cc(C3CC(c4c(Cc5ccccc5)c5cc(Cl)ccc5[nH]c4=O)=NN3C(=O)CCC(=O)O)ccc21 (centres unmarked) [d.69, 4-[5-(4-benzyl-6-chloro-2-oxo-1H-quinolin-3-yl)-3-(1-methylindol-5-yl)-3,4-dihydropyrazol-2-yl]-4-oxo-butanoic acid] | 10 µM |
| O=C(O)CCC(=O)N1N=C(c2c(Cc3ccccc3)c3cc(Cl)ccc3[nH]c2=O)CC1c1ccc(-c2ccc(F)cc2)cc1 (centres unmarked) [d.83, 4-[5-(4-benzyl-6-chloro-2-oxo-1H-quinolin-3-yl)-3-[4-(4-fluorophenyl)phenyl]-3,4-dihydropyrazol-2-yl]-4-oxo-butanoic acid] | 12 µM |
| COc1ccc(-c2ccc(C3CC(c4c(Cc5ccccc5)c5cc(Cl)ccc5[nH]c4=O)=NN3C(C)=O)cc2)cc1 (centres unmarked) [d.89, 3-[2-acetyl-3-[4-(4-methoxyphenyl)phenyl]-3,4-dihydropyrazol-5-yl]-4-benzyl-6-chloro-1H-quinolin-2-one] | 105 µM |
| O=C(O)CCC(=O)N1N=C(c2c(-c3ccccc3)c3cc(Cl)ccc3[nH]c2=O)CC1c1ccccn1 (centres unmarked) [d.99, 4-(3-(6-chloro-2-oxo-4-phenyl-1,2-dihydroquinolin-3-yl)-5-(pyridin-2-yl)-4,5-dihydro-1H-pyrazol-1-yl)-4-oxobutanoic acid] | 190 µM |
| O=C(O)CCC(=O)N1N=C(c2c(Cc3ccccc3)c3cc(Cl)ccc3[nH]c2=O)CC1c1cccnc1 (centres unmarked) [d.100, 4-[5-(4-benzyl-6-chloro-2-oxo-1H-quinolin-3-yl)-3-(3-pyridyl)-3,4-dihydropyrazol-2-yl]-4-oxo-butanoic acid] | 15 µM |

Each molecule was assayed on BxPC-3 cells (assay: Cell viability assay (CellTiter Glo)). Conditions: Homo sapiens, 72 h.
Type: cell-based
Experimental: BxPC-3 cells were grown in RPMI 1640 containing 10% FBS, 100 U/ml penicillin/streptomycin, 2 mM glutamine. All media and supplements were from Sigma-Aldrich. Cultures were routinely tested for Mycoplasma contamination. Treatments (Olaparib and BRCA2-Rad51 disruptors) were administered in culture medium supplemented with 0.6% DMSO. The same amount of DMSO was added to the control, untreated cultures.
Cell viability was assessed by CellTiter Glo, Luminescent Cell Viability Assay. Briefly, BxPC-3 cells (1×10^4/well) were plated in white 96-well plates with clear bottom and treated for 72 h with olaparib (10 μM) or with the BRCA2-Rad51 disruptors, given alone or in combination. After treatments, the plate was allowed to equilibrate at room temperature for 30 min and the CellTiter-Glo reactive was directly added to each well. The plate was kept on a shaker for 2 min to induce cell lysis and its luminescence was measured by using a Fluoroskan Ascent FL reader (Labsystems) using manufacturer's instructions.

| SMILES | EC50 |
| --- | --- |
| O=C(O)CCC(=O)N1N=C(c2c(-c3ccccc3)c3cc(Cl)ccc3[nH]c2=O)CC1c1ccc(F)cc1 (centres unmarked) [d.1, 4-[5-(6-chloro-2-oxo-4-phenyl-1H-quinolin-3-yl)-3-(4-fluorophenyl)-3,4-dihydropyrazol-2-yl]-4-oxo-butanoic acid] | > 50 µM |
| CC(=O)N1N=C(c2c(-c3ccccc3)c3cc(Cl)ccc3[nH]c2=O)CC1c1ccc(F)cc1 (centres unmarked) [d.2, 3-[2-acetyl-3-(4-fluorophenyl)-3,4-dihydropyrazol-5-yl]-6-chloro-4-phenyl-1H-quinolin-2-one] | 37 µM |
| NCCC(=O)N1N=C(c2c(-c3ccccc3)c3cc(Cl)ccc3[nH]c2=O)CC1c1ccc(F)cc1 (centres unmarked) [d.4, 3-[2-(3-aminopropanoyl)-3-(4-fluorophenyl)-3,4-dihydropyrazol-5-yl]-6-chloro-4-phenyl-1H-quinolin-2-one] | 7.6 µM |
| O=C(O)CCC(=O)N1N=C(c2c(-c3ccccc3)c3cc(Cl)ccc3[nH]c2=O)CC1c1ccc(Cl)cc1 (centres unmarked) [d.5, 4-[5-(6-chloro-2-oxo-4-phenyl-1H-quinolin-3-yl)-3-(4-chlorophenyl)-3,4-dihydropyrazol-2-yl]-4-oxo-butanoic acid] | > 50 µM |
| CC(=O)N1N=C(c2c(-c3ccccc3)c3cc(Cl)ccc3[nH]c2=O)CC1c1ccc(Cl)cc1 (centres unmarked) [d.6, 3-[2-acetyl-3-(4-chlorophenyl)-3,4-dihydropyrazol-5-yl]-6-chloro-4-phenyl-1H-quinolin-2-one] | 20 µM |
| CCC(=O)N1N=C(c2c(-c3ccccc3)c3cc(Cl)ccc3[nH]c2=O)CC1c1ccc(Cl)cc1 (centres unmarked) [d.7, 6-chloro-3-[3-(4-chlorophenyl)-2-propanoyl-3,4-dihydropyrazol-5-yl]-4-phenyl-1H-quinolin-2-one] | 20 µM |
| CCn1ncc2cc(C3CC(c4c(-c5ccccc5)c5cc(Cl)ccc5[nH]c4=O)=NN3C(C)=O)ccc21 (centres unmarked) [d.32, 3-[2-acetyl-3-(1-ethylindazol-5-yl)-3,4-dihydropyrazol-5-yl]-6-chloro-4-phenyl-1H-quinolin-2-one] | 27 µM |
| O=C(O)CCC(=O)N1N=C(c2c(-c3ccccc3)c3cc(Cl)ccc3[nH]c2=O)CC1c1ccc(-c2ccc(Br)cc2)cc1 (centres unmarked) [d.39, 4-[3-[4-(4-bromophenyl)phenyl]-5-(6-chloro-2-oxo-4-phenyl-1H-quinolin-3-yl)-3,4-dihydropyrazol-2-yl]-4-oxo-butanoic acid] | 43 µM |
| COc1ccc(-c2ccc(C3CC(c4c(-c5ccccc5)c5cc(Cl)ccc5[nH]c4=O)=NN3C(=O)CCC(=O)O)cc2)cc1 (centres unmarked) [d.41, 4-[5-(6-chloro-2-oxo-4-phenyl-1H-quinolin-3-yl)-3-[4-(4-methoxyphenyl)phenyl]-3,4-dihydropyrazol-2-yl]-4-oxo-butanoic acid] | 40.6 µM |
| CC(=O)N1N=C(c2c(-c3ccccc3)c3cc(Cl)ccc3[nH]c2=O)CC1c1ccc(C)cc1 (centres unmarked) [d.49, 3-[2-acetyl-3-(p-tolyl)-3,4-dihydropyrazol-5-yl]-6-chloro-4-phenyl-1H-quinolin-2-one] | 15.2 µM |
| O=C(O)CCC(=O)N1N=C(c2c(Cc3ccccc3)c3cc(Cl)ccc3[nH]c2=O)CC1c1ccc(F)cc1 (centres unmarked) [d.50, 4-[5-(4-benzyl-6-chloro-2-oxo-1H-quinolin-3-yl)-3-(4-fluorophenyl)-3,4-dihydropyrazol-2-yl]-4-oxo-butanoic acid] | 15.2 µM |
| COc1ccc(C2CC(c3c(Cc4ccccc4)c4cc(Cl)ccc4[nH]c3=O)=NN2C(C)=O)cc1 (centres unmarked) [d.52, 3-[2-acetyl-3-(4-methoxyphenyl)-3,4-dihydropyrazol-5-yl]-4-benzyl-6-chloro-1H-quinolin-2-one] | 13.7 µM |
| O=C(O)CCC(=O)N1N=C(c2c(Cc3ccccc3)c3cc(Cl)ccc3[nH]c2=O)CC1c1ccc(Br)cc1 (centres unmarked) [d.58, 4-[5-(4-benzyl-6-chloro-2-oxo-1H-quinolin-3-yl)-3-(4-bromophenyl)-3,4-dihydropyrazol-2-yl]-4-oxo-butanoic acid] | 23.6 µM |
| Cn1ncc2cc(C3CC(c4c(Cc5ccccc5)c5cc(Cl)ccc5[nH]c4=O)=NN3C(=O)CCC(=O)O)ccc21 (centres unmarked) [d.73, 4-[5-(4-benzyl-6-chloro-2-oxo-1H-quinolin-3-yl)-3-(1-methylindazol-5-yl)-3,4-dihydropyrazol-2-yl]-4-oxo-butanoic acid] | 81.8 µM |
| COc1ccc(C2CC(c3c(CCc4ccccc4)c4cc(Cl)ccc4[nH]c3=O)=NN2C(=O)CCC(=O)O)cc1 (centres unmarked) [d.105, 4-[5-[6-chloro-2-oxo-4-(2-phenylethyl)-1H-quinolin-3-yl]-3-(4-methoxyphenyl)-3,4-dihydropyrazol-2-yl]-4-oxo-butanoic acid] | 29.6 µM |
